Assay results: patent US8729102B2, “Bicyclic compound” (Takeda Pharmaceutical Company Limited, priority 2010, dated 2014)

target: T1, Human ACC2 (ACC2 (Nd), N terminal deleted) (Homo sapiens, UniProt O00763); experiment: Measurement of ACC2 inhibitory activity (malachite green, recombinant ACC2 (Nd)); format: biochemical; conditions: 10 μM test compound; 20 min preincubation at 30° C., 20 min reaction; 10 µM
T1 construct: made in house; host or cells: SF-9 insect cells (baculovirus)
Protocol: The ACC2 inhibitory action of the compound of the present invention was evaluated by the following method.
(1) Cloning of Human ACC2 Gene and Preparation of Recombinant Baculovirus
Human ACC2 gene was cloned by PCR using a human skeletal muscle cDNA library (Clontech) as a template and Primer 1 and Primer 2 shown below. Primer 1 and Primer 2 were prepared by adding SalI, XbaI restriction enzyme recognition sequences based on the information of the base sequence of human ACC2 gene (Genbank Accession U89344).
(§1) PCR was performed using Pyrobest DNA polymerase (TAKARA BIO INC.). The obtained PCR product was cloned to pT7 Blue vector (Novagen) and after confirmation of the base sequence, digested with restriction enzymes SalI and XbaI. The obtained DNA fragment was inserted into pFAST-BacHTa (Invitrogen) digested with restriction enzymes Sail and XbaI to give expression plasmid ACC2/pFAST-BacHTa.
A plasmid for expression of ACC2 without a mitochondrial targeting sequence was prepared by PCR using the expression plasmid as a template, and Primer 3 (salI restriction enzyme recognition sequence was added) and Primer 4, which are prepared by reference to the information of human ACC2 gene base sequence (Genbank Accession U89344).
as §1, with “Pyrobest-DNA” for “Pyrobest DNA”, “Aflil.” for “XbaI.”, “ACC2/pFAST-BacHTa” for “pFAST-BacHTa (Invitrogen)”, “SalI” for “Sail”, “AfilI” for “XbaI”, “ACC2mito7/pFAST-BacHTa.” for “ACC2/pFAST-BacHTa.”
Using the expression plasmid ACC2mito7/pFAST-BacHTa and BAC-TO-BAC Baculovirus Expression System (Invitrogen), virus stock BAC-ACC2 of recombinant Baculovirus (N terminal deleted (hereinafter Nd)) was prepared.
(2) Preparation of ACC2 (Nd) Protein
SF-9 cells (Invitrogen) were inoculated to a medium (2 L) for insect cells (Sf-900IISFM medium (Invitrogen) containing 10% fetal bovine serum (Trace), 50 mg/L Gentamicin (Invitrogen), 0.1% Pluronic F-68 (Invitrogen)) at 0.5×10^6 cells/mL, and cultured with shaking in Wave Bioreactor (Wave) at 27° C., 20 rpm, rocking angle 6°, oxygen concentration 30%.
On day 4 of the culture, 3 L of the medium for insect cells was added, the rocking angle was set to 8°, and the cells were further cultured. On day 5 of the culture, 100 mL of recombinant Baculovirus BAC-ACC2 (Nd) was added, 5 L of the medium for insect cells was further added, the rocking angle was set to 11°, and the cells were cultured for 3 days. The culture medium was centrifuged at 1000×g for 10 min to give virus-infected cells. The cells were washed with phosphate buffered saline (Invitrogen) and centrifuged under the same conditions. The obtained cells were cryopreserved at −80° C.
The cryopreserved cells were thawed in ice and suspended in 900 mL of 25 mM HEPES buffer (pH 7.5) containing 10% Glycerol, 0.13 M NaCl, 1 mM EDTA, 25 mM Sodium β-Glycerophosphate and 1 mM Sodium Orthovanadate, and supplemented with Complete Protease Inhibitor (Nippon Boehringer Ingelheim Co., Ltd.). The obtained suspension was homogenized three times in a polytron homogenizer (Kinematica) at 20,000 rpm for 30 sec. The obtained cell disruption solution was clarified by centrifugation at 31000×g for 60 min, and filtered through a 0.45 μm filter. The filtrate was passed through a column packed with 60 mL of Ni-NTA Super Flow Gel (QUIAGEN) at a flow rate of about 5 mL/min. The column was washed with buffer A (50 mM HEPES (pH 7.5) containing 0.3 M NaCl), further washed with buffer A containing 20 mM Imidazole, and eluted with buffer A containing 100 mM Imidazole. The eluate was concentrated with Vivaspin 20 (Vivascience) with a molecular weight cut off of 30K. The obtained concentrate was dialyzed against 50 mM HEPES (pH 7.5) containing 10 mM MgCl2, 2 mM Dithiothreitol, 10 mM Tripotassium Citrate and 0.3 M NaCl. […]

T1 sequence (O00763 117-2458 limits assumed, stated change not applied): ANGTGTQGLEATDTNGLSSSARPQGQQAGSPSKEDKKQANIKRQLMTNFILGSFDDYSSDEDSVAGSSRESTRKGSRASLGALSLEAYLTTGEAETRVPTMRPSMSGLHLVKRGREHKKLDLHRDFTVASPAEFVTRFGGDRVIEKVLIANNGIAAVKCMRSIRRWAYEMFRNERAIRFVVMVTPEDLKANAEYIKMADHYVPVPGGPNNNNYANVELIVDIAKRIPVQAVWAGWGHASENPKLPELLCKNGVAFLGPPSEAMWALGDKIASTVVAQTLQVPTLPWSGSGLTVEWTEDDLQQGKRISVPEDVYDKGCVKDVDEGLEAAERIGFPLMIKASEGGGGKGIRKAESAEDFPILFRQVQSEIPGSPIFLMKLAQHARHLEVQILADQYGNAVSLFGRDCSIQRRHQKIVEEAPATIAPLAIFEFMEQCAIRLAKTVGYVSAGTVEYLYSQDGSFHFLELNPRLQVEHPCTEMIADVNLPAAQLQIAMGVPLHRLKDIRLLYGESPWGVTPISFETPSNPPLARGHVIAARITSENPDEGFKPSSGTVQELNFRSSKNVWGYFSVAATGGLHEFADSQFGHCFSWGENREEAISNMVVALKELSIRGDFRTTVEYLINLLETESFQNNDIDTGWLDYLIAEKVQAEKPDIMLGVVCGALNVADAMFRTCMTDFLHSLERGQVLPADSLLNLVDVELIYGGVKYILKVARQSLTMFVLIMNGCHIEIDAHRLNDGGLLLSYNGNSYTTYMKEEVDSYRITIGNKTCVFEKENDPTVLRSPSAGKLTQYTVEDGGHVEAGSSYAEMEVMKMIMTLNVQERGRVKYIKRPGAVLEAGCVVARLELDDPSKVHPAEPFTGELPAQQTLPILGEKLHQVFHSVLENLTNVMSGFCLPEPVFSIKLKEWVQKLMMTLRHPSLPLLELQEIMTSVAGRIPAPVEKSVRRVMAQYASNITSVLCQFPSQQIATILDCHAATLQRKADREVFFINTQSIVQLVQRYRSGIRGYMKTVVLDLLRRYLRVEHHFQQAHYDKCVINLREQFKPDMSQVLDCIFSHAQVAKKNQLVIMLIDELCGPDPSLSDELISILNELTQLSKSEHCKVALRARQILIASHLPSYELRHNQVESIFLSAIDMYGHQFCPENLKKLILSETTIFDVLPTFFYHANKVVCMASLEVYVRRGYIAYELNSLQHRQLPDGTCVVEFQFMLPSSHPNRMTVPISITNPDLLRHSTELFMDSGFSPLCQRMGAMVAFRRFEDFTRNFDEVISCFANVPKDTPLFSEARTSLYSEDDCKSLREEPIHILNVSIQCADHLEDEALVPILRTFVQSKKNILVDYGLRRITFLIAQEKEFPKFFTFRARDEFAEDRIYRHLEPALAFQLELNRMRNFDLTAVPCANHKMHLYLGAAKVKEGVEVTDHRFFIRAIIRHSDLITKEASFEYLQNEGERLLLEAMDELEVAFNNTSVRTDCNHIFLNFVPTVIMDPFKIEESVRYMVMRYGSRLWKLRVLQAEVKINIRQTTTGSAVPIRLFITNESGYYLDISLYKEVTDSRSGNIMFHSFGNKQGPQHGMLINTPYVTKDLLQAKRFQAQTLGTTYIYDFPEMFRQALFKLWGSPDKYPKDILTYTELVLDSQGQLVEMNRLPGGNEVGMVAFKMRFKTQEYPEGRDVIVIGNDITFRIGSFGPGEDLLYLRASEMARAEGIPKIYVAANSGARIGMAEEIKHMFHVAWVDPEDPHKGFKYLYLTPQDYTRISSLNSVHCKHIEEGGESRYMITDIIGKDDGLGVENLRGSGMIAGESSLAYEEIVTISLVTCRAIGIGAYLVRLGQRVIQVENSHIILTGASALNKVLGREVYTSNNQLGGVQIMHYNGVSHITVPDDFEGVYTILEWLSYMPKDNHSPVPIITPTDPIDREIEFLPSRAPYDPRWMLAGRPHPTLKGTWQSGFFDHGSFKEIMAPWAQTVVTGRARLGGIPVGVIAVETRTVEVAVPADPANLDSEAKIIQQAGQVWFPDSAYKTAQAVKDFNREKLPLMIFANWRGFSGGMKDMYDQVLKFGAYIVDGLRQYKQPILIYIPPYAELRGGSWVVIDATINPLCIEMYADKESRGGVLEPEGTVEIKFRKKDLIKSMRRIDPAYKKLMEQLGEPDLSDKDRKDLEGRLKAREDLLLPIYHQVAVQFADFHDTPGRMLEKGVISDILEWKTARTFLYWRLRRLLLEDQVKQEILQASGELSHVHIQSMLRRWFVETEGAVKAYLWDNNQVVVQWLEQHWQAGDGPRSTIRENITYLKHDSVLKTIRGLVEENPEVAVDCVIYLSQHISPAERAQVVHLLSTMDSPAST

ACC2 inhibitory rate at 10 μM (%)	Structure (SMILES)
100	C[C@@H](COc1cnc(-c2nc3ccc(OCC4CC4(F)F)cc3o2)c(F)c1)NC(N)=O (stereo partly drawn) [Example 112, Diastereomer of 1-{(1S)-2-[(6-{6-[(2,2-difluorocyclopropyl)methoxy]-1,3-benzoxazol-2-yl}-5-fluoropyridin-3-yl)oxy]-1-methylethyl}urea (retention time: long)]
100	C[C@@H](COc1cnc(-c2nc3ccc(OCC4CC4(F)F)cc3o2)c(F)c1)NC(N)=O (stereo partly drawn) [Example 111, Diastereomer of 1-{(1S)-2-[(6-{6-[(2,2-difluorocyclopropyl)methoxy]-1,3-benzoxazol-2-yl}-5-fluoropyridin-3-yl)oxy]-1-methylethyl}urea (retention time: short)]

same assay, conditions: 10 μM test compound; 20 min preincubation at 30° C., 20 min reaction; read-out: ACC2 inhibitory rate at 10 μM (%)

inhibition at 10 µM [%]	Structure (SMILES)
93	CC(=O)N[C@@H](C)COc1cc(F)c(-n2cc3ccc(OCC4CC4)cc3n2)cc1F [Example 70, N-[(1S)-2-{4-[6-(cyclopropylmethoxy)-2H-indazol-2-yl]-2,5-difluorophenoxy}-1-methylethyl]acetamide]
94	CC(=O)N[C@@H](C)COc1ccc(-n2cc3ccc(OCC4CC4)cc3n2)cc1 [Example 13, N-[(1S)-2-{4-[6-(cyclopropylmethoxy)-2H-indazol-2-yl]phenoxy}-1-methylethyl]acetamide]
100	CC(=O)N[C@@H](C)COc1ccc(-c2nc3ccc(OCC(C)(F)F)cc3o2)nc1 [Example 30]
94	CC(=O)N[C@@H](C)COc1ccc(-c2nc3cc(OCC4CC4)ccn3n2)cc1 [Example 95, N-[(1S)-2-{4-[7-(cyclopropylmethoxy) [1,2,4]triazolo[1,5-a]pyridin-2-yl]phenoxy}-1-methylethyl]acetamide]
97	CCC1(c2ccc(OC[C@H](C)NC(C)=O)cn2)Cc2ccc(OCC3CC3)cc2O1 (stereo partly drawn) [Example 119, Diastereomer of N-[(1S)-2-({6-[6-(cyclopropylmethoxy)-2-ethyl-2,3-dihydro-1-benzofuran-2-yl]pyridin-3-yl}oxy)-1-methylethyl]acetamide]
85	CC(=O)N[C@@H](C)COc1cc(-c2nc3cc(OC(C)C)ccc3o2)on1 [Example 33, N-[(1S)-1-methyl-2-({5-[5-(1-methylethoxy)-1,3-benzoxazol-2-yl]isoxazol-3-yl}oxy)ethyl]acetamide]
103	CC(=O)N[C@@H](C)COc1ccc(-n2cc3cc(OCC4CC4)ccc3n2)cc1 [Example 12, N-[(1S)-2-{4-[5-(cyclopropylmethoxy)-2H-indazol-2-yl]phenoxy}-1-methylethyl]acetamide]
90	CCOc1ccc2c(F)c(-c3ccc(OC[C@H](C)NC(C)=O)cc3F)nn2c1 [Example 100, N-{(1S)-2-[4-(6-ethoxy-3-fluoropyrazolo[1,5-a]pyridin-2-yl)-3-fluorophenoxy]-1-methylethyl}acetamide]
92	C[C@@H](COc1ccc(-c2nc3ccc(OCC4CC4)cc3o2)nc1)NC(N)=O [Example 15, 1-[(1S)-2-({6-[6-(cyclopropylmethoxy)-1,3-benzoxazol-2-yl]pyridin-3-yl}oxy)-1-methylethyl]urea]
95	CC(=O)N[C@@H](C)COc1cnc(-c2nc3ccc(OCC4CC4(F)F)cc3o2)c(F)c1 (stereo partly drawn) [Example 109, Diastereomer of N-{(1S)-2-[(6-{6-[(2,2-difluorocyclopropyl)methoxy]-1,3-benzoxazol-2-yl}-5-fluoropyridin-3-yl)oxy]-1-methylethyl}acetamide (retention time: short)]
99	CC(=O)N[C@@H](C)COc1ccc(-c2nc3ccc(OCC4CC4)cc3o2)cc1 [Example 3, N-[(1S)-2-{4-[6-(cyclopropylmethoxy)-1,3-benzoxazol-2-yl]phenoxy}-1-methylethyl]acetamide]
95	CCOc1ccc2cn(-c3ccc(OC[C@H](C)NC(C)=O)cc3)nc2c1 [Example 26, N-{(1S)-2-[4-(6-ethoxy-2H-indazol-2-yl)phenoxy]-1-methylethyl}acetamide]
99	CC(=O)N[C@@H](C)COc1ccc(-c2nn3cc(OCC4CC4)ccc3c2F)c(F)c1 [Example 102, N-[(1S)-2-{4-[6-(cyclopropylmethoxy)-3-fluoropyrazolo[1,5-a]pyridin-2-yl]-3-fluorophenoxy}-1-methylethyl]acetamide]
93	CNC(=O)N[C@@H](C)COc1ccc(-c2nc3ccc(OCC4CC4)cc3o2)nc1 [Example 16, 1-[(1S)-2-({6-[6-(cyclopropylmethoxy)-1,3-benzoxazol-2-yl]pyridin-3-yl}oxy)-1-methylethyl]-3-methylurea]
93	CCOc1ccc2cc(-c3ccc(OC[C@H](C)NC(C)=O)cc3)nn2c1 [Example 85, N-{(1S)-2-[4-(6-ethoxypyrazolo[1,5-a]pyridin-2-yl)phenoxy]-1-methylethyl}acetamide]
94	CC(=O)N[C@@H](C)COc1ccc(-c2nc3ccc(OCC4CC4)cn3n2)cc1 [Example 89, N-[(1S)-2-{4-[6-(cyclopropylmethoxy)[1,2,4]triazolo[1,5-a]pyridin-2-yl]phenoxy}-1-methylethyl]acetamide]
98	CC(=O)N[C@@H](C)COc1n[nH]c(-c2nc3ccc(OCC4CC4)cc3o2)c1F [Example 9, N-[(1S)-2-({5-[6-(cyclopropylmethoxy)-1,3-benzoxazol-2-yl]-4-fluoro-1H-pyrazol-3-yl}oxy)-1-methylethyl]acetamide]
90	COC(=O)N[C@@H](C)COc1ccc(-c2nc3ccc(OCC4CC4)cc3o2)nc1 [Example 17, methyl [(1S)-2-({6-[6-(cyclopropylmethoxy)-1,3-benzoxazol-2-yl]pyridin-3-yl}oxy)-1-methylethyl]carbamate]
95	C[C@@H](COc1cnc(-c2nc3ccc(OCC4CC4(F)F)cc3o2)c(F)c1)NC(N)=O (stereo partly shown) [Example 97]
102	CC(=O)N[C@@H](C)COc1ccc(-c2cc3ccc(OCC4CC4)cn3n2)c(F)c1 [Example 104, N-[(1S)-2-{4-[6-(cyclopropylmethoxy)pyrazolo[1,5-a]pyridin-2-yl]-3-fluorophenoxy}-1-methylethyl]acetamide]
90	CC(=O)N[C@@H](C)COc1ccc(C2Cc3ccc(OCC4CC4)cc3O2)nc1 (stereo partly drawn) [Example 24, N-[(1S)-2-({6-[6-(cyclopropylmethoxy)-2,3-dihydro-1-benzofuran-2-yl]pyridin-3-yl}oxy)-1-methylethyl]acetamide]
93	C[C@@H](COc1ccc(-n2cc3ccc(OCC4CC4)cc3n2)cc1)NC(=O)N(C)C [Example 63, 3-[(1S)-2-{4-[6-(cyclopropylmethoxy)-2H-indazol-2-yl]phenoxy}-1-methylethyl]-1,1-dimethylurea]

Structure (SMILES)	inhibition at 10 µM [%]
CCOc1ccc2cn(-c3ccc(OC[C@H](C)NC(C)=O)cc3F)nc2c1 [Example 25, N-{(1S)-2-[4-(6-ethoxy-2H-indazol-2-yl)-3-fluorophenoxy]-1-methylethyl}acetamide monohydrate]	90
